Assays:
[1] = Octanol-water partition coefficient, log D at pH 7.4; type: physicochemical
[2] = Metabolic stability in monkey liver microsomes assessed as compound remaining after 120 mins by HPLC; type: ADME, Macaca mulatta, Microsome; settings: rhesus monkey, read-out: Activity
[3] = Metabolic stability in human liver microsomes assessed as compound remaining after 120 mins by HPLC; type: ADME, Microsome; settings: read-out: Activity

Structure (SMILES)	logD [1]	remaining at 2 h [2] [%]	remaining at 2 h [3] [%]
O=C([C@H](O)CS(=O)(=O)c1ccc2cc(Cl)ccc2c1)N1CCC(N2Cc3ccccc3C2=O)CC1	2.58	–	–
O=C([C@H](O)CS(=O)(=O)c1ccc2cc(Cl)ccc2c1)N1CCC(N2Cc3cccn3C2=O)CC1	2.6	–	–
O=C([C@H](O)CS(=O)(=O)c1ccc2cc(Cl)ccc2c1)N1CCC(n2cc[nH]c2=O)CC1	1.79	–	–
O=C([C@H](O)CS(=O)(=O)c1ccc2cc(Cl)ccc2c1)N1CCC(N2CCOC2=O)CC1	1.75	–	–
O=C([C@H](O)CS(=O)(=O)c1ccc2cc(Cl)ccc2c1)N1CCC(N2CCCS2(=O)=O)CC1	1.69	–	–
O=C([C@H](O)CS(=O)(=O)c1ccc2cc(Cl)ccc2c1)N1CCC(N2CCNC2=O)CC1	1.73	–	–
O=C([C@H](O)CS(=O)(=O)c1ccc2cc(Cl)ccc2c1)N1CCC(N2CCCCCC2=O)CC1	2.52	–	–
O=C([C@H](O)CS(=O)(=O)c1ccc2cc(Cl)ccc2c1)N1CCC(N2CCCC2)CC1	1.56	–	–
O=C([C@H](O)CS(=O)(=O)c1ccc2cc(Cl)ccc2c1)N1CCC(N2CCCOC2=O)CC1	1.67	–	–
O=C([C@H](O)CS(=O)(=O)c1ccc2cc(Cl)ccc2c1)N1CCC(N2CCOCC2=O)CC1	1.85	–	–
O=C([C@H](O)CS(=O)(=O)c1ccc2cc(Cl)ccc2c1)N1CCC(N2NCCCC2=O)CC1	1.85	–	–
Cc1ncc2n1C(=O)N(C1CCN(C(=O)CCS(=O)(=O)c3ccc4cc(Cl)ccc4c3)CC1)C2	–	99.9	70.5
Cc1ncc2n1C(=O)N(C1CCN(C(=O)[C@H](O)CS(=O)(=O)c3ccc4cc(Cl)ccc4c3)CC1)C2	2.13	–	–

Second part, the compound after the results:

logD [1]	remaining at 2 h [2] [%]	remaining at 2 h [3] [%]	Structure (SMILES)
2.16	–	–	O=C([C@H](O)CS(=O)(=O)c1ccc2cc(Cl)ccc2c1)N1CCC(N2C[C@@H]3CCCN3C2=O)CC1
2.16	–	–	O=C([C@H](O)CS(=O)(=O)c1ccc2cc(Cl)ccc2c1)N1CCC(N2C[C@H]3CCCN3C2=O)CC1
1.96	–	–	O=C([C@H](O)CS(=O)(=O)c1ccc2cc(Cl)ccc2c1)N1CCC(N2CCCC2=O)CC1
2.19	–	–	O=C([C@H](O)CS(=O)(=O)c1ccc2cc(Cl)ccc2c1)N1CCC(N2CCCCC2=O)CC1
1.81	–	–	O=C([C@H](O)CS(=O)(=O)c1ccc2cc(Cl)ccc2c1)N1CCC(N2CCCNC2=O)CC1 [LETAXABAN]

Reference: ChEMBL document CHEMBL1157901, “Discovery of a tetrahydropyrimidin-2(1H)-one derivative (TAK-442) as a potent, selective, and orally active factor Xa inhibitor” (J Med Chem, 2010)
